Results taken from PMC3688238, “The effect of different dosing regimens of motesanib on the gallbladder: a randomized phase 1b study in patients with advanced solid tumors” (BMC Cancer, 2013).
Where two headings read alike, the source gives them in different places.

Legend:
Format in all cases: in vivo, human
[1] = Pharmacokinetic analysis of plasma motesanib concentrations (noncompartmental); details: for concentration at 24 h: read-out: Median Cmin (trough plasma concentration at 24 hours postdose); for Cmax: po, read-out: Median Cmax
Method: Blood samples were collected as follows: predose and at 30 minutes and 1, 2, 4, 6, 8, and 24 hours postdose on day 1 of weeks 1 and 4, and predose and 1 to 2 hours postdose at weeks 2, 3, and 7 and every 3 weeks thereafter. […] Motesanib concentrations were assessed as described previously.

[2] = test system: gallbladder; assay: Gallbladder size (volume) by ultrasound, independent central review; details: for Mean change in gallbladder volume after discontinuation of motesanib (95% CI): last on-treatment to last available off-treatment measurement; for Gallbladder volume, mean change from baseline (95% CI): ultrasound
Method: (§1) Gallbladder volume was assessed by ultrasound after a ≥8 hours fast at screening (within 21 days prior to randomization) and before the motesanib morning dose on days 8 and 15 of cycle 1, on day 1 of cycles 2 and 3, every 6 weeks thereafter, and at the safety follow-up (30 to 33 days after the last dose). Ultrasound was performed weekly when motesanib was withheld and weekly for 4 weeks following treatment discontinuation. Gallbladder ultrasound measurements were assessed by independent central radiologic review (MedQIA, Los Angeles, CA, USA). Gallbladder ejection fraction was assessed by investigators or other study site personnel using CCK-HIDA at screening (within 21 days of randomization), on day 1 of cycle 2, day 1 of cycle 6 (±3 days), and at the safety follow-up. Study-specific training and standard operating procedures were supplied to all radiology technicians.
(§2) The ultrasound and CCK-HIDA gallbladder analysis sets, which included all randomized patients who received ≥1 dose of motesanib and had baseline and ≥1 evaluable follow-up ultrasound or CCK-HIDA, respectively, were used for the principal analysis of endpoints related to gallbladder size and characteristics. For each dosing scheme, estimates for the mean and maximum change from baseline in gallbladder size (volume as measured by ultrasound) and function (ejection fraction as measured by CCK-HIDA scan) were calculated. Mean change from baseline was calculated by taking the difference between the baseline gallbladder measurement and the average gallbladder measurement observed during study treatment. The mean (95% CI) difference was then calculated across all patients for each treatment arm, and for the whole study population. Maximum change from baseline in gallbladder size or volume was calculated by taking the difference between the baseline gallbladder measurement and the maximum gallbladder measurement observed during study treatment. The mean (95% CI) maximum change from baseline was then calculated across all patients for each treatment arm, and for the whole study population. Reversibility of changes in gallbladder volume and ejection fraction were evaluated calculating changes between the last on-treatment measurement and the last available measurement following the discontinuation of motesanib. Covariates (treatment, age, sex, body mass index, and nonsteroidal anti-inflammatory drug [NSAID] use) were explored in a linear regression model for potential relationships with gallbladder volume. Objective response was assessed for the safety analysis set, including only patients with measureable disease at baseline.

[3] = test system: gallbladder; assay: Specific gallbladder findings per independent ultrasound review
Method: as §1

[4] = test system: gallbladder; assay: Gallbladder function (ejection fraction) by CCK-HIDA, investigator assessment; details: for Gallbladder ejection fraction, mean change from baseline (95% CI): CCK-HIDA
Method: as §1, §2

[5] = test system: patients with advanced metastatic solid tumors; assay: Adverse events (NCI CTCAE version 3.0)
Method: AEs occurring during treatment and through the safety follow-up were recorded and graded according to the National Cancer Institute Common Terminology Criteria for Adverse Events (version 3.0).

[6] = test system: advanced metastatic solid tumors; assay: Tumor response per RECIST (investigator)
Method: Tumor response per RECIST [27] was assessed by the investigators. Magnetic resonance imaging or CT scans were performed at screening, every 6 weeks thereafter, and at the safety follow-up. Complete or partial responses were confirmed >28 days after the initial response assessment throughout the study. Patients who discontinued without a postbaseline tumor assessment or confirmation were considered nonresponders.
as §2

[7] = Arm B, 75 mg BID 2 wk on/1 wk off, n = 9
[8] = Arm B, 75 mg BID 2 wk on/1 wk off, n = 11
[9] = Arm C, 75 mg BID 5 d on/2 d off, n = 8
[10] = Arm C, 75 mg BID 5 d on/2 d off, n = 11
[11] = Arm A, 125 mg QD, post baseline, n = 23
[12] = Arm A, 125 mg QD, post treatment, n = 16
[13] = Arm B, 75 mg BID 2 wk on/1 wk off
[14] = Arm B, 75 mg BID 2 wk on/1 wk off, post baseline, n = 11
[15] = Arm B, 75 mg BID 2 wk on/1 wk off, post treatment, n = 9
[16] = Arm C, 75 mg BID 5 d on/2 d off
[17] = Arm C, 75 mg BID 5 d on/2 d off, post baseline, n = 11
[18] = Arm C, 75 mg BID 5 d on/2 d off, post treatment, n = 8
[19] = Arm B, 75 mg BID 2 wk on/1 wk off, n = 3
[20] = Arm B, 75 mg BID 2 wk on/1 wk off, n = 10
[21] = Arm C, 75 mg BID 5 d on/2 d off, n = 2
[22] = Arm C, 75 mg BID 5 d on/2 d off, n = 10

SMILES: CC1(C)CNc2cc(NC(=O)c3cccnc3NCc3ccncc3)ccc21 [Motesanib]
- Median motesanib concentration after wash-out period ([1]; Arm B, after the 1-week wash-out period, limit of quantitation 0.2 ng/mL): < 0.2 ng/mL
- Median motesanib concentration after wash-out period ([1]; Arm C, after the 2-day wash-out period): 1.2 ng/mL
- Drug accumulation ([1]; after QD administration): no evidence of drug accumulation
- concentration at 24 h ([1]; human, plasma, oral, 75 mg, Arm B, 75 mg BID 2 wk on/1 wk off): 60 ng/mL
- concentration at 24 h ([1]; human, plasma, oral, 75 mg, Arm C, 75 mg BID 5 d on/2 d off): 35 ng/mL
- concentration at 24 h ([1]; human, plasma, oral, 125 mg, Arm A, 125 mg QD): 14 ng/mL
- AUC ([1]; human, plasma, oral, range across the three dosing regimens, read-out: Median AUC): 1900 to 3000 ng·h/mL
- Cmax ([1]; human, plasma, 75 mg, Arm B, 75 mg BID 2 wk on/1 wk off, plasma, oral): 323 ng/mL
- Cmax ([1]; human, plasma, 75 mg, Arm C, 75 mg BID 5 d on/2 d off, plasma, oral): 355 ng/mL
- Cmax ([1]; human, plasma, 125 mg, Arm A, 125 mg QD, plasma, oral): 630 ng/mL
- Mean change in gallbladder volume from baseline to last available off-treatment measurement (95% CI) ([2]; Arm A, 125 mg QD, n = 16): 10.4 (−10.0 to 30.8) cc
- Mean change in gallbladder volume after discontinuation of motesanib (95% CI) ([2]; Arm A, 125 mg QD, n = 16): −8.5 (−38.8 to 21.7) cc
- Gallbladder volume, maximum change from baseline (95% CI) ([2]; Arm A, 125 mg QD, n = 23): 45.6 (20.2–70.9) cc
- Gallbladder volume, mean change from baseline (95% CI) ([2]; Arm A, 125 mg QD, n = 23): 17.7 (6.4–28.9) cc
- Mean change in gallbladder volume from baseline to last available off-treatment measurement (95% CI) [2, 7]: −14.4 (−31.1 to 2.4) cc
- Mean change in gallbladder volume after discontinuation of motesanib (95% CI) [2, 7]: −16.2 (−37.4 to 5.1) cc
- Gallbladder volume, maximum change from baseline (95% CI) [2, 8]: 74.4 (41.3–107.4) cc
- Gallbladder volume, mean change from baseline (95% CI) [2, 8]: 26.8 (11.5–42.1) cc
- Mean change in gallbladder volume from baseline to last available off-treatment measurement (95% CI) [2, 9]: 7.1 (−28.9 to 43.0) cc
- Mean change in gallbladder volume after discontinuation of motesanib (95% CI) [2, 9]: −7.4 (−67.1 to 52.4) cc
- Gallbladder volume, maximum change from baseline (95% CI) [2, 10]: 67.3 (30.8–103.8) cc
- Gallbladder volume, mean change from baseline (95% CI) [2, 10]: 26.9 (8.8–45.1) cc
- Gallbladder volume change from baseline during treatment, median ([2]; across all patients): 17.3 cc
- Gallbladder volume change from baseline during treatment, range ([2]; across all patients): −43.3 to 83.2 cc
- Gallbladder volume increase from baseline during treatment, mean ([2]; across all patients, from 38.6 cc at baseline): 22.2 cc
- Incidence of biliary sludge ([3]; Arm A, 125 mg QD): 39%
- Gallstones, patient incidence ([3]; Arm A, 125 mg QD, post baseline (any point during treatment), n = 23): 4 (17) n (%)
- Common duct dilation, patient incidence [3, 11]: 0 (0) n (%)
- Pericholecystic fluid, patient incidence [3, 11]: 1 (4) n (%)
- Sludge, patient incidence [3, 11]: 9 (39) n (%)
- Gallstones, patient incidence ([3]; Arm A, 125 mg QD, post treatment (last available off-treatment assessment), n = 16): 3 (19) n (%)
- Common duct dilation, patient incidence [3, 12]: 0 (0) n (%)
- Pericholecystic fluid, patient incidence [3, 12]: 0 (0) n (%)
- Sludge, patient incidence [3, 12]: 4 (25) n (%)
- Incidence of biliary sludge [3, 13]: 36%
- Common duct dilation, patient incidence [3, 14]: 0 (0) n (%)
- Gallstones, patient incidence [3, 14]: 2 (18) n (%)
- Pericholecystic fluid, patient incidence [3, 14]: 1 (9) n (%)
- Sludge, patient incidence [3, 14]: 4 (36) n (%)
- Common duct dilation, patient incidence [3, 15]: 0 (0) n (%)
- Gallstones, patient incidence [3, 15]: 2 (22) n (%)
- Pericholecystic fluid, patient incidence [3, 15]: 0 (0) n (%)
- Sludge, patient incidence [3, 15]: 4 (44) n (%)
- Incidence of biliary sludge [3, 16]: 27%
- Common duct dilation, patient incidence [3, 17]: 0 (0) n (%)
- Gallstones, patient incidence [3, 17]: 0 (0) n (%)
- Pericholecystic fluid, patient incidence [3, 17]: 0 (0) n (%)
- Sludge, patient incidence [3, 17]: 3 (27) n (%)
- Common duct dilation, patient incidence [3, 18]: 0 (0) n (%)
- Gallstones, patient incidence [3, 18]: 0 (0) n (%)
- Pericholecystic fluid, patient incidence [3, 18]: 0 (0) n (%)
- Sludge, patient incidence [3, 18]: 0 (0) n (%)
- Patients who developed de novo gallstones during treatment ([3]; all arms): Two
- Mean change in ejection fraction after discontinuation of motesanib (95% CI) ([4]; Arm A, 125 mg QD, n = 5): 10.8 (−45.8 to 67.4) %
- Mean change in ejection fraction from baseline to last available off-treatment measurement (95% CI) ([4]; Arm A, 125 mg QD, n = 5): −16.6 (−53.3 to 20.1) %
- Gallbladder ejection fraction, maximum change from baseline (95% CI) ([4]; Arm A, 125 mg QD, n = 21): −30.1 (−46.4 to −13.7) %
- Gallbladder ejection fraction, mean change from baseline (95% CI) ([4]; Arm A, 125 mg QD, n = 21): −24.1 (−38.2 to −9.9) %
- Mean change in ejection fraction after discontinuation of motesanib (95% CI) [4, 19]: 63.0 (24.0 to 102.0) %
- Mean change in ejection fraction from baseline to last available off-treatment measurement (95% CI) [4, 19]: 7.7 (−3.8 to 19.1) %
- Gallbladder ejection fraction, maximum change from baseline (95% CI) [4, 20]: −26.5 (−45.0 to −8.0) %
- Gallbladder ejection fraction, mean change from baseline (95% CI) [4, 20]: −25.0 (−43.9 to −6.1) %
- Mean change in ejection fraction after discontinuation of motesanib (95% CI) [4, 21]: 46.0 (−347.9 to 439.9) %
- Mean change in ejection fraction from baseline to last available off-treatment measurement (95% CI) [4, 21]: 14.5 (−55.4 to 84.4) %
- Gallbladder ejection fraction, maximum change from baseline (95% CI) [4, 22]: −6.5 (−29.8 to 16.8) %
- Gallbladder ejection fraction, mean change from baseline (95% CI) [4, 22]: −3.3 (−25.0 to 18.4) %
- Gallbladder ejection fraction change from baseline, median ([4]; across all patients): −18.0%
- Gallbladder ejection fraction change from baseline, range ([4]; across all patients): −81% to 67
- Gallbladder ejection fraction decrease from baseline, mean ([4]; across all patients, from 61.3% at baseline): 19.2%
- Incidence of grade ≥3 treatment-related AEs ([5]; Arm A, 125 mg QD): 32%
- Patients with serious grade 3 acute cholecystitis resulting in cholecystectomy ([5]; Arm A, approximately 1 month after treatment initiation): one
- Patients with cholecystitis that resolved after treatment discontinuation ([5]; Arm A, grades 1, 2, 3, n = 1 each): Three
- Patients with grade 1 gallbladder disorders (gallbladder dysfunction, gallbladder wall thickening) ([5]; Arm A, ongoing at safety follow-up): two
- Incidence of grade ≥3 treatment-related AEs [5, 13]: 42%
- Incidence of grade ≥3 treatment-related AEs [5, 16]: 33%
- Patients with right upper quadrant pain during the study ([5]; all patients): Twelve
- Patients with grade 4 AEs ([5]; all patients (one each in Arms B and C)): Two
- Gallbladder toxicity events (all considered treatment-related), incidence ([5]; occurred only in Arm A, 125 mg QD): 12%
- Durable (≥24 weeks) stable disease ([6]; Arm A, n = 6): 25%
- Progressive disease ([6]; Arm A, n = 8): 33%
- Stable disease as best tumor response ([6]; Arm A, n = 15): 63%
- Durable (≥24 weeks) stable disease ([6]; Arm B, n = 1): 8%
- Progressive disease ([6]; Arm B, n = 3): 25%
- Stable disease as best tumor response ([6]; Arm B, n = 6): 50%
- Patients with confirmed partial response ([6]; Arm B, stage IV thyroid cancer): one
- Durable (≥24 weeks) stable disease ([6]; Arm C, n = 1): 9%
- Progressive disease ([6]; Arm C, n = 4): 36%
- Stable disease as best tumor response ([6]; Arm C, n = 7): 64%
- Complete responses ([6]; all patients): No complete responses were achieved
- Durable (≥24 weeks) stable disease ([6]; all patients (8 patients)): 17%
- Progressive disease ([6]; all patients (fifteen patients)): 32%
- Stable disease as best tumor response ([6]; all patients (twenty-eight patients)): 60%
- Overall objective response rate ([6]; all patients with measurable disease at baseline, RECIST): 2%
